Experimental data as given in ChEMBL document CHEMBL3046001, “4-Thiazolidinone and 1-thia-3,4,9-triaza fluorene conjugates: synthesis, characterization and antimicrobial screening” (2013).
Values after ≈ are worked out from the molar mass of the structure shown. Active and inactive are the calls of the source. The calls are words filed in the database; no cut-off is given here.

How the values were obtained:
Penicillium chrysogenum [1] = experiment: Antifungal activity against Penicillium chrysogenum MTCC 161 assessed as growth inhibition at 1250 ug/mL after 48 hr by agar diffusion method; type: functional; conditions: MTCC 161, 48 h, read-out: DIZ
Aspergillus niger [2] = experiment: Antifungal activity against Aspergillus niger MTCC 2546 assessed as growth inhibition at 750 ug/mL after 48 hr by agar diffusion method; type: functional; conditions: MTCC 2546, 48 h, read-out: DIZ
Staphylococcus aureus [3] = experiment: Antibacterial activity against Staphylococcus aureus MTCC 1430 assessed as growth inhibition at 250 ug/mL after 48 hr by agar diffusion method; type: functional
Bacillus pumilus [4] = experiment: Antibacterial activity against Bacillus pumilus MTCC 1456 assessed as growth inhibition at 750 ug/mL after 48 hr by agar diffusion method; type: functional; conditions: MTCC 1456, 48 h, read-out: DIZ
Pseudomonas fluorescens [5] = experiment: Antibacterial activity against Pseudomonas fluorescens MTCC 2421 assessed as growth inhibition at 100 ug/mL after 48 hr by agar diffusion method; type: functional; conditions: MTCC 2421, 48 h, read-out: DIZ
Escherichia coli [6] = experiment: Antibacterial activity against Escherichia coli MTCC 1573 assessed as growth inhibition at 1250 ug/mL after 48 hr by agar diffusion method; type: functional; conditions: MTCC 1573, 48 h, read-out: DIZ
Escherichia coli [7] = experiment: Antibacterial activity against Escherichia coli MTCC 1573 assessed as growth inhibition at 500 ug/mL after 48 hr by agar diffusion method; type: functional; conditions: MTCC 1573, 48 h, read-out: DIZ
Pseudomonas fluorescens [8] = experiment: Antibacterial activity against Pseudomonas fluorescens MTCC 2421 assessed as growth inhibition at 1250 ug/mL after 48 hr by agar diffusion method; type: functional; conditions: MTCC 2421, 48 h, read-out: DIZ
Bacillus pumilus [9] = experiment: Antibacterial activity against Bacillus pumilus MTCC 1456 assessed as growth inhibition at 1000 ug/mL after 48 hr by agar diffusion method; type: functional; conditions: MTCC 1456, 48 h, read-out: DIZ
Pseudomonas aeruginosa [10] = experiment: Antibacterial activity against Pseudomonas aeruginosa MTCC 424 assessed as growth inhibition at 1000 ug/mL after 48 hr by agar diffusion method; type: functional; conditions: MTCC 424, 48 h, read-out: DIZ
Bacillus subtilis [11] = experiment: Antibacterial activity against Bacillus subtilis MTCC 441 assessed as growth inhibition at 250 ug/mL after 48 hr by agar diffusion method; type: functional; conditions: MTCC 441, 48 h, read-out: DIZ
Pseudomonas fluorescens [12] = experiment: Antibacterial activity against Pseudomonas fluorescens MTCC 2421 assessed as growth inhibition after 24 hr by tube dilution method; type: functional; conditions: MTCC 2421, 24 h
Micrococcus luteus [13] = experiment: Antibacterial activity against Micrococcus luteus MTCC 1538 assessed as growth inhibition after 24 hr by tube dilution method; type: functional; conditions: MTCC 1538, 24 h
Staphylococcus aureus [14] = experiment: Antibacterial activity against Staphylococcus aureus MTCC 1430 assessed as growth inhibition after 24 hr by tube dilution method; type: functional; conditions: MTCC 1430, 24 h
Bacillus subtilis [15] = experiment: Antibacterial activity against Bacillus subtilis MTCC 441 assessed as growth inhibition at 500 ug/mL after 48 hr by agar diffusion method; type: functional; conditions: MTCC 441, 48 h, read-out: DIZ
Escherichia coli [16] = experiment: Antibacterial activity against Escherichia coli MTCC 1573 assessed as growth inhibition at 750 ug/mL after 48 hr by agar diffusion method; type: functional; conditions: MTCC 1573, 48 h, read-out: DIZ
Bacillus pumilus [17] = experiment: Antibacterial activity against Bacillus pumilus MTCC 1456 assessed as growth inhibition at 250 ug/mL after 48 hr by agar diffusion method; type: functional; conditions: MTCC 1456, 48 h, read-out: DIZ
Micrococcus luteus [18] = experiment: Antibacterial activity against Micrococcus luteus MTCC 1538 assessed as growth inhibition at 100 ug/mL after 48 hr by agar diffusion method; type: functional
Aspergillus niger [19] = experiment: Antifungal activity against Aspergillus niger MTCC 2546 assessed as growth inhibition at 1250 ug/mL after 48 hr by agar diffusion method; type: functional; conditions: MTCC 2546, 48 h, read-out: DIZ
Escherichia coli [20] = experiment: Antibacterial activity against Escherichia coli MTCC 1573 assessed as growth inhibition after 24 hr by tube dilution method; type: functional; conditions: MTCC 1573, 24 h
Bacillus subtilis [21] = experiment: Antibacterial activity against Bacillus subtilis MTCC 441 assessed as growth inhibition at 750 ug/mL after 48 hr by agar diffusion method; type: functional; conditions: MTCC 441, 48 h, read-out: DIZ
Pseudomonas aeruginosa [22] = experiment: Antibacterial activity against Pseudomonas aeruginosa MTCC 424 assessed as growth inhibition at 500 ug/mL after 48 hr by agar diffusion method; type: functional; conditions: MTCC 424, 48 h, read-out: DIZ
Pseudomonas aeruginosa [23] = experiment: Antibacterial activity against Pseudomonas aeruginosa MTCC 424 assessed as growth inhibition at 250 ug/mL after 48 hr by agar diffusion method; type: functional; conditions: MTCC 424, 48 h, read-out: DIZ
Bacillus subtilis [24] = experiment: Antibacterial activity against Bacillus subtilis MTCC 441 assessed as growth inhibition at 100 ug/mL after 48 hr by agar diffusion method; type: functional
Pseudomonas fluorescens [25] = experiment: Antibacterial activity against Pseudomonas fluorescens MTCC 2421 assessed as growth inhibition at 500 ug/mL after 48 hr by agar diffusion method; type: functional; conditions: MTCC 2421, 48 h, read-out: DIZ
Penicillium chrysogenum [26] = experiment: Antifungal activity against Penicillium chrysogenum MTCC 161 assessed as growth inhibition after 24 hr by tube dilution method; type: functional; conditions: MTCC 161, 24 h
Pseudomonas aeruginosa [27] = experiment: Antibacterial activity against Pseudomonas aeruginosa MTCC 424 assessed as growth inhibition at 1250 ug/mL after 48 hr by agar diffusion method; type: functional; conditions: MTCC 424, 48 h, read-out: DIZ
Staphylococcus aureus [28] = experiment: Antibacterial activity against Staphylococcus aureus MTCC 1430 assessed as growth inhibition at 750 ug/mL after 48 hr by agar diffusion method; type: functional; conditions: MTCC 1430, 48 h, read-out: DIZ
Bacillus pumilus [29] = experiment: Antibacterial activity against Bacillus pumilus MTCC 1456 assessed as growth inhibition after 24 hr by tube dilution method; type: functional; conditions: MTCC 1456, 24 h
Escherichia coli [30] = experiment: Antibacterial activity against Escherichia coli MTCC 1573 assessed as growth inhibition at 250 ug/mL after 48 hr by agar diffusion method; type: functional; conditions: MTCC 1573, 48 h, read-out: DIZ
Micrococcus luteus [31] = experiment: Antibacterial activity against Micrococcus luteus MTCC 1538 assessed as growth inhibition at 750 ug/mL after 48 hr by agar diffusion method; type: functional; conditions: MTCC 1538, 48 h, read-out: DIZ
Penicillium chrysogenum [32] = experiment: Antifungal activity against Penicillium chrysogenum MTCC 161 assessed as growth inhibition at 500 ug/mL after 48 hr by agar diffusion method; type: functional; conditions: MTCC 161, 48 h, read-out: DIZ
Staphylococcus aureus [33] = experiment: Antibacterial activity against Staphylococcus aureus MTCC 1430 assessed as growth inhibition at 500 ug/mL after 48 hr by agar diffusion method; type: functional; conditions: MTCC 1430, 48 h, read-out: DIZ
Staphylococcus aureus [34] = experiment: Antibacterial activity against Staphylococcus aureus MTCC 1430 assessed as growth inhibition at 1000 ug/mL after 48 hr by agar diffusion method; type: functional; conditions: MTCC 1430, 48 h, read-out: DIZ
Penicillium chrysogenum [35] = experiment: Antifungal activity against Penicillium chrysogenum MTCC 161 assessed as growth inhibition at 1000 ug/mL after 48 hr by agar diffusion method; type: functional; conditions: MTCC 161, 48 h, read-out: DIZ
Pseudomonas fluorescens [36] = experiment: Antibacterial activity against Pseudomonas fluorescens MTCC 2421 assessed as growth inhibition at 250 ug/mL after 48 hr by agar diffusion method; type: functional; conditions: MTCC 2421, 48 h, read-out: DIZ
Pseudomonas fluorescens [37] = experiment: Antibacterial activity against Pseudomonas fluorescens MTCC 2421 assessed as growth inhibition at 1000 ug/mL after 48 hr by agar diffusion method; type: functional; conditions: MTCC 2421, 48 h, read-out: DIZ
Aspergillus niger [38] = experiment: Antifungal activity against Aspergillus niger MTCC 2546 assessed as growth inhibition at 100 ug/mL after 48 hr by agar diffusion method; type: functional, organism-based
Pseudomonas aeruginosa [39] = experiment: Antibacterial activity against Pseudomonas aeruginosa MTCC 424 assessed as growth inhibition at 750 ug/mL after 48 hr by agar diffusion method; type: functional; conditions: MTCC 424, 48 h, read-out: DIZ

Compound	zone of inhibition at 1250 µg/mL (Penicillium chrysogenum [1]) [mm]	zone of inhibition at 750 µg/mL (Aspergillus niger [2]) [mm]	zone of inhibition at 750 µg/mL (Bacillus pumilus [4]) [mm]	zone of inhibition at 100 µg/mL (Pseudomonas fluorescens [5]) [mm]	zone of inhibition at 1250 µg/mL (Escherichia coli [6]) [mm]	zone of inhibition at 500 µg/mL (Escherichia coli [7]) [mm]	zone of inhibition at 1250 µg/mL (Pseudomonas fluorescens [8]) [mm]	zone of inhibition at 1000 µg/mL (Bacillus pumilus [9]) [mm]	zone of inhibition at 1000 µg/mL (Pseudomonas aeruginosa [10]) [mm]	zone of inhibition at 250 µg/mL (Bacillus subtilis [11]) [mm]	MIC (Pseudomonas fluorescens [12]) [µg/mL]	MIC (Micrococcus luteus [13]) [µg/mL]	MIC (Staphylococcus aureus [14]) [µg/mL]	zone of inhibition at 500 µg/mL (Bacillus subtilis [15]) [mm]	zone of inhibition at 750 µg/mL (Escherichia coli [16]) [mm]	zone of inhibition at 250 µg/mL (Bacillus pumilus [17]) [mm]	growth inhibition (GI) (Micrococcus luteus [18])	zone of inhibition at 1250 µg/mL (Aspergillus niger [19]) [mm]	MIC (Escherichia coli [20]) [µg/mL]	zone of inhibition at 750 µg/mL (Bacillus subtilis [21]) [mm]	other results
O=C1CSC(c2cccc3ccccc23)N1c1nnc2c3cc(Cl)ccc3nc-2s1 (stereo not drawn)	18	13	15	8	20	13	24	17	15	7	40 (≈ 89.1 µM)	150 (≈ 334 µM)	150 (≈ 334 µM)	11	15	10	inactive	18	30 (≈ 66.8 µM)	15	growth inhibition (GI) (Staphylococcus aureus [3]): inactive; zone of inhibition at 500 µg/mL (Pseudomonas aeruginosa [22]): 12 mm; zone of inhibition at 250 µg/mL (Pseudomonas aeruginosa [23]): 10 mm; growth inhibition (GI) (Bacillus subtilis [24]): inactive; zone of inhibition at 500 µg/mL (Pseudomonas fluorescens [25]): 12 mm; MIC (Penicillium chrysogenum [26]): 150 µg/mL (≈ 334 µM); zone of inhibition at 1250 µg/mL (Pseudomonas aeruginosa [27]): 18 mm; zone of inhibition at 750 µg/mL (Staphylococcus aureus [28]): 8 mm; MIC (Bacillus pumilus [29]): 40 µg/mL (≈ 89.1 µM); zone of inhibition at 250 µg/mL (Escherichia coli [30]): 10 mm; zone of inhibition at 750 µg/mL (Micrococcus luteus [31]): 12 mm; zone of inhibition at 500 µg/mL (Penicillium chrysogenum [32]): 11 mm; zone of inhibition at 500 µg/mL (Staphylococcus aureus [33]): 6 mm; zone of inhibition at 1000 µg/mL (Staphylococcus aureus [34]): 10 mm; zone of inhibition at 1000 µg/mL (Penicillium chrysogenum [35]): 15 mm; zone of inhibition at 250 µg/mL (Pseudomonas fluorescens [36]): 11 mm; zone of inhibition at 1000 µg/mL (Pseudomonas fluorescens [37]): 20 mm; growth inhibition (GI) (Aspergillus niger [38]): inactive; zone of inhibition at 750 µg/mL (Pseudomonas aeruginosa [39]): 13 mm
O=C1CSC(c2ccccn2)N1c1nnc2c3ccccc3nc-2s1 (stereo not drawn)	17	14	17	7	22	13	20	19	18	10	50 (≈ 137 µM)	250 (≈ 684 µM)	200 (≈ 547 µM)	12	15	10	inactive	17	40 (≈ 109 µM)	13	zone of inhibition at 250 µg/mL (Staphylococcus aureus [3]; MTCC 1430, 48 h, read-out: DIZ): 8 mm; zone of inhibition at 500 µg/mL (Pseudomonas aeruginosa [22]): 13 mm; zone of inhibition at 250 µg/mL (Pseudomonas aeruginosa [23]): 9 mm; zone of inhibition at 100 µg/mL (Bacillus subtilis [24]; MTCC 441, 48 h, read-out: DIZ): 8 mm; zone of inhibition at 500 µg/mL (Pseudomonas fluorescens [25]): 13 mm; MIC (Penicillium chrysogenum [26]): 150 µg/mL (≈ 410 µM); zone of inhibition at 1250 µg/mL (Pseudomonas aeruginosa [27]): 22 mm; zone of inhibition at 750 µg/mL (Staphylococcus aureus [28]): 10 mm; MIC (Bacillus pumilus [29]): 50 µg/mL (≈ 137 µM); zone of inhibition at 250 µg/mL (Escherichia coli [30]): 9 mm; zone of inhibition at 750 µg/mL (Micrococcus luteus [31]): 14 mm; zone of inhibition at 500 µg/mL (Penicillium chrysogenum [32]): 12 mm; zone of inhibition at 500 µg/mL (Staphylococcus aureus [33]): 9 mm; zone of inhibition at 1000 µg/mL (Staphylococcus aureus [34]): 12 mm; zone of inhibition at 1000 µg/mL (Penicillium chrysogenum [35]): 15 mm; zone of inhibition at 250 µg/mL (Pseudomonas fluorescens [36]): 10 mm; zone of inhibition at 1000 µg/mL (Pseudomonas fluorescens [37]): 18 mm; growth inhibition (GI) (Aspergillus niger [38]): inactive; zone of inhibition at 750 µg/mL (Pseudomonas aeruginosa [39]): 15 mm
